PMC10388311, “Innovative Strategy toward Mutant CFTR Rescue in Cystic Fibrosis: Design and Synthesis of Thiadiazole Inhibitors of the E3 Ligase RNF5” (Journal of Medicinal Chemistry, 2023)
“Also recorded” adds a separate entry of the source.

Tests used:
[1] = Solubility and aggregation in PBS buffer by NMR (SPAM filter, 1H 1D and WaterLOGSY); assay type: physicochemical; conditions: PBS pH 7.5, 1 μM ZnCl2, 1 mM DTT, 10% D2O, 1% DMSO-d6; for solubility: PBS buffer, aqueous buffer, kinetic from dmso stock, theoretical concentration 20 μM, read-out: solubility in PBS buffer by NMR, 20 μM; for aggregation in PBS buffer by NMR: WaterLOGSY; for solubility at 50 µM: theoretical concentration 50 μM; for solubility at 100 µM: theoretical concentration 100 μM
From the text: Under these circumstances, it was decided to explore the solubility of all the synthetized compounds, regardless of their biological activities, to find a suitable candidate for the validation of our working hypothesis, i.e., that the compounds exert their activities by directly binding to RNF5. For that, we first calculated the predicted octanol/water partition coefficient (log Po/w) and the predicted aqueous solubility (log S) of all the analogues by QikProp (Schrödinger Release 2022-1: QikProp, Schrödinger, LLC, New York, NY, 2021, Table S1). […] To shrink down the number of compounds for solubility experiments, just the ones that had −2.0 < log Po/w < 6 and −6.5 < log S <0.5 values were selected. Among them, the PBS solubility was determined for five representative analogues: (i) 12 and 29 bearing different substituents on the benzyl group A; (ii) 34 and 40 showing the replacement of rings B and C with pyridine-4-yl moieties; (iii) 42 in which the N-phenylbenzamidine portion was replaced with a pyridine-2-yl moiety (Table 1).
All the NMR experiments were recorded at 298 K using a 5 mm CryoProbe QCI ^1H/^19F–^13C/^15N–D quadruple resonance, a shielded z-gradient coil, and an automatic sample changer SampleJet NMR system with temperature control. The solubility of the compounds were evaluated by ^1H 1D experiments and aggregation by WaterLOGSY, testing the compounds in buffer PBS pH 7,5, 1 μM ZnCl2, 1 mM DTT, 10% D2O (for the lock signal), and 1% DMSO-d6 at the theoretical concentrations of 20, 50, and 100 μM in the presence of 200 μM 4-trifluoromethyl benzoic acid (internal reference). For all samples, a 1D ^1H NMR experiment was recorded, the water suppression was obtained using the standard NOESY (nuclear Overhauser effect spectroscopy) preset Bruker pulse sequence, with 64k data points, a spectral width (sw) of 30 ppm, 64 scans, acquisition time (aq) of 1.835 s, a relaxation delay (d1) of 4 s, and a mixing time of 10 ms. […] The data were multiplied by an exponential window function with 1 Hz line broadening prior to Fourier transformation. For NMR binding experiments, the compounds were tested at 50 μM in buffer PBS pH 7.5, 1 μM ZnCl2, 1 mM DTT, 10% D2O (for the lock signal), and 1% DMSO-d6 in the absence and in the presence of 3 μM RNF5. WaterLOGSY experiments were recorded with the same parameters used in solubility assays, but with a higher number of scans (512); STD experiments were recorded with 128 scans, with two on (0.7 and 1 ppm) and one off (−50 ppm) resonance spectra, a Gaussian-shaped train pulse of 50 ms each was employed, with a total saturation time of the protein envelope of 5, 3, 2, 1.5, 1, or 0.5 s. A T1ρ filter of 2 ms was employed in STD experiments to eliminate the background signals from the protein. The STD spectrum was obtained by subtraction of the on-resonance spectrum from the off-resonance spectrum. Subtraction was performed by phase cycling to minimize artifacts arising from magnet and temperature instabilities.

[2] = tested on: ATG4B-mediated basal autophagy in F508del-CFTR-expressing CFBE41o– cells; test: Labeling of autophagic vacuoles with monodansylcadaverine (MDC); assay type: cell-based, human; conditions: test compounds 5 μM 24 h; torin-1 20 nM and SAR-405 2 μM in the last 3 h
From the text: To further support our hypothesis that CFTR rescue following treatment with test compounds was indeed due to RNF5 inhibition, we considered additional biological processes known to be regulated by RNF5 ligase activity. To this aim, we focused our attention on ATG4B, a known regulator of basal autophagy, whose degradation is mediated by RNF5 activity.[54]In vivo ubiquitination experiments previously confirmed that inh-2 inhibits ATG4B degradation, thus increasing the basal level of autophagy.[40] […] We thus evaluated the effect of inh-2 analogues on induction of the autophagy pathway. To this aim, we monitored the formation of autophagic vacuoles in F508del-CFTR-expressing CFBE41o^– cells (Figure 8) by using the autolysosome marker monodansylcadaverine (MDC). MDC accumulates inside autophagosomes. After fusion of autophagosomes with lysosomes, MDC fluorescence increases due to the acidic environment.[55] Therefore, F508del-CFTR-expressing CFBE41o^– cells were treated for 24 h with test compounds (5 μM), VX-809 (1 μM), or DMSO alone (vehicle). In the last 3 h of incubation, we added torin-1 (20 nM), a known autophagy inducer, and SAR-405 (2 μM), a potent inhibitor of the autophagic pathway. The cells were then loaded with MDC and evaluated by high-content confocal imaging to detect signal spots (corresponding to autophagic vacuoles) in each cell.
CFBE41o^– cells stably expressing F508del-CFTR and the HS-YFP were plated (50,000 cells/well) on good-quality clear-bottom 96-well black microplates suitable for high-content imaging. After 24 h, cells were treated with test compounds or DMSO (as the negative control). […] After 24 h, cells were incubated with 50 μM MDC (Sigma-Aldrich) in PBS at 37 °C for 10 min.[62] After incubation, cells were washed three times with PBS and immediately analyzed. High-content imaging and data analysis were performed using the Opera Phenix (PerkinElmer) high-content screening system. Wells were imaged in confocal mode using a 40× water-immersion objective. The MDC signal was laser-excited at 405 nm, and the emission wavelengths were collected between 435 and 550 nm. Data analysis of MDC spot number was performed using the Harmony software (ver 4.5) of the Opera Phenix high-content system. Data are expressed as means ± SEM, n = 3 independent experiments. Statistical significance was tested by parametric ANOVA followed by the Dunnet multiple comparisons test (all groups against the control group).

[3] = biological target: T1, F508del-CFTR in CFBE41o– cells (Homo sapiens, UniProt Q99942); set-up: method as in PMID 29754957; conditions: cited from earlier work
[4] = tested on: CFBE41o– cells; test: Apoptosis assay (Hoechst 33342 / propidium iodide, high-content imaging); assay type: cell-based, human; conditions: 24 h, 100 μM
Method: We performed a preliminary evaluation of the effect of chronic treatment with selected analogues on the proliferation and apoptosis of CFBE41o^– cells (Figure 7). Indeed, RNF5 can modulate cell motility and proliferation by regulating paxillin ubiquitylation and thus its degradation.[53] For the proliferation assay, CFBE41o^– cells stably co-expressing F508del-CFTR and the HS-YFP were treated with test compounds (5 μM), VX-809 (1 μM), or vehicle alone (DMSO) for 48 h. Cell proliferation was then monitored by measuring the area covered by the cells based on the YFP signal. For the apoptosis assay, 24 h after plating, CFBE41o^– cells stably expressing F508del-CFTR were treated with test compounds (5, 20, and 100 μM), VX-809 (1 μM), MG132 (50 μM), or vehicle alone (DMSO) for 24 h. Cell nuclei were then counterstained with Hoechst 33342 and propidium iodide to visualize the total and apoptotic cell count, respectively, and imaged by using an Opera Phenix high-content screening system.
CFBE41o^– cells stably expressing F508del-CFTR and the HS-YFP were plated at a low density (5000 cell/well) on 96-well plates suitable for high-content imaging. […] Cell proliferation was monitored (by exploiting the YFP signal to determine the area covered by cells) for 48 h using the Opera Phenix (PerkinElmer) high-content screening system. […] Data are expressed as means ± SEM, n = 6. […]

[5] = biological target: T1, F508del-CFTR in CFBE41o– cells; test: HS-YFP microfluorimetric assay of F508del-CFTR rescue (corrector activity); assay type: cell-based; conditions: CFBE41o– cells co-expressing F508del-CFTR and HS-YFP, 24 h treatment, Figure 5
Method: As a primary screen, the new thiadiazole derivatives 1–46 (Table 1) were tested for their ability to rescue the F508del-CFTR trafficking defect in CFBE41o^– cells, stably co-expressing F508del-CFTR and the HS-YFP (Figure 5). This cell line has been extensively used by our group, in combination with the microfluorimetric assay based on the HS-YFP, to identify and characterize many CFTR correctors.[39],[47] This assay relies on the hypothesis that RNF5 inhibition results in increased mutant CFTR processing and activity. Therefore, it can easily identify putative RNF5 inhibitors, but not other types of RNF5-binding compounds that could have no effect or have a negative effect on CFTR function, such as RNF5 activators (see analog-1). Thus, we opted for this assay as our primary aim was the identification of RNF5 inhibitors as a possible therapeutic strategy in CF. Twenty-four hours after seeding on 96-well plates, CFBE41o^– cells stably expressing F508del-CFTR and the HS-YFP were treated with test compounds at the desired concentration, one compound per well. Cells treated with vehicle alone (DMSO) and with corrector VX-809 (1 μM), respectively, served as negative and positive controls. At the time of the assay, cells were washed with PBS containing (in […]) 137 NaCl, 2.7 KCl, 8.1 Na2HPO4, 1.5 KH2PO4, 1 CaCl2, and 0.5 MgCl2. Cells were then incubated for 25 min with […] of PBS plus forskolin (20 μM) and VX-770 (1 μM) to maximally stimulate F508del-CFTR. Cells were then transferred to a microplate reader (FluoStar Galaxy; BMG Labtech, Offenburg, Germany) for CFTR activity determination. The plate reader was equipped with high-quality excitation (HQ500/20X: 500 ± 10 nm) and emission (HQ535/30M: 535 ± 15 nm) filters for YFP (Chroma Technology). Each assay comprised a continuous 14 s fluorescence reading and 2 s before and 12 s after injection of […] of an iodide-containing solution (PBS with Cl^– replaced by I^–; final I^– concentration […]). Data were normalized to the initial background-subtracted fluorescence. To determine the I^– influx rate, the final 11 s of the data for each well was fitted with an exponential function to extrapolate initial slope (dF/dt). Reproducibility of results was confirmed by performing three independent experiments. CFBE41o^– cells co-expressing F508del-CFTR and the HS-YFP were reverse-transfected with 50 nM (final concentration) siRNAs (Stealth, Life Technologies) in the presence of lipofectamine 2000 as a transfection agent. The following day, the medium was changed, and the cells were incubated at 37 °C for additional 24 h treated with test compounds at the desired concentration, prior to processing the cells for the YFP-based functional assay.

T1 sequence (Q99942 2-180): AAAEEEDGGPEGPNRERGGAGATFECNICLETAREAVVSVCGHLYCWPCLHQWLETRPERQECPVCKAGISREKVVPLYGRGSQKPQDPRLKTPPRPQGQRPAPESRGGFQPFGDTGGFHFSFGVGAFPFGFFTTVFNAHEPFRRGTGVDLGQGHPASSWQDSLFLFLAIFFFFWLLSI
T1 sequence (P13569 with tags, fused parts or gaps DEL508-508 partner): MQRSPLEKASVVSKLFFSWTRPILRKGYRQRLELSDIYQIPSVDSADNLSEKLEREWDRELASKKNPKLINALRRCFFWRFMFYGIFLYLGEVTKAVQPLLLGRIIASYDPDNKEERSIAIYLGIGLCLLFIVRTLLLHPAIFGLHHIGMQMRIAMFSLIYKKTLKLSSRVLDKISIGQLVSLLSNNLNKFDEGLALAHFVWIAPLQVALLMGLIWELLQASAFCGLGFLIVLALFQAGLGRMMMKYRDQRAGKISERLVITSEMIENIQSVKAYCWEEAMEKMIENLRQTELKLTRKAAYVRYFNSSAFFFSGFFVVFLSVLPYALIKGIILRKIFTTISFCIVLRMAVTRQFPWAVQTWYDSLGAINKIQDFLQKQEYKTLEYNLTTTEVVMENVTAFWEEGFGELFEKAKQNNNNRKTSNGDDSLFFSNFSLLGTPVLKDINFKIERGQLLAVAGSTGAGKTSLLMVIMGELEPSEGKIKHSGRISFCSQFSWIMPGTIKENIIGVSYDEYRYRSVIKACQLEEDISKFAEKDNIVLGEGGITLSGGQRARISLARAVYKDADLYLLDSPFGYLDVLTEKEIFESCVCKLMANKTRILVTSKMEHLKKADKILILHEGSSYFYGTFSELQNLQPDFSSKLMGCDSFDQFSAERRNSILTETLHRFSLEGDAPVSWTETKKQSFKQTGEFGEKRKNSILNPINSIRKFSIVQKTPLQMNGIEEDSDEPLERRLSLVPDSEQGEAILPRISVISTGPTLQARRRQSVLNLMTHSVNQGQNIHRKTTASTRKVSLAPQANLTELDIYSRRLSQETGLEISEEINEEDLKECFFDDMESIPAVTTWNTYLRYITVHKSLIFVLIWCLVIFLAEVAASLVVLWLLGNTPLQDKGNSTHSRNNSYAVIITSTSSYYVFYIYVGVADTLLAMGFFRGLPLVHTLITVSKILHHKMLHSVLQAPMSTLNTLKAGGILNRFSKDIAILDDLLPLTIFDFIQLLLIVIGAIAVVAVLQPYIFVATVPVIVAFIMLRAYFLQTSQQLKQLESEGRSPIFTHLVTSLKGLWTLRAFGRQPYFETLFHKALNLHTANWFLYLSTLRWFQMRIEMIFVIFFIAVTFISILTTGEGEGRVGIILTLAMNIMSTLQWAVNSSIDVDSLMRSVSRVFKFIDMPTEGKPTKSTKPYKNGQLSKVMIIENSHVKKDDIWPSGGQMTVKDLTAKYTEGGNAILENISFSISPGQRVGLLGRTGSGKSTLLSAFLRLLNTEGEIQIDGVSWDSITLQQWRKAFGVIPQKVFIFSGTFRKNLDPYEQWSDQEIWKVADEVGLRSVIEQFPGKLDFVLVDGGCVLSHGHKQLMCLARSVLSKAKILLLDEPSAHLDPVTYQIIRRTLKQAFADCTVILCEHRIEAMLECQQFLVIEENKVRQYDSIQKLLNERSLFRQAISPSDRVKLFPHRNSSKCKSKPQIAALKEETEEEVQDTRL

solubility [1] [µM]	aggregation in PBS buffer by NMR [1]	solubility at 50 µM [1] [µM]	solubility at 100 µM [1] [µM]	F508del-CFTR corrector activity compared with inh-2 (CFTR activity, primary screen) [5]	SMILES	number of autophagic vacuoles (MDC signal spots) [2]	CFTR corrector activity (in words) [3]	cell apoptosis [4]
< 5	no	<5	<5		Cc1ns/c(=N\C(=N\c2ccccc2)c2ccccc2)n1-c1ccccc1 [analog-1, reference compound]	significantly decreased	no activity as a CFTR corrector; also recorded: lack of CFTR corrector activity	
< 5	no	<5	<5	increased activity	Cc1ns/c(=N\C(=N\c2ccccc2)c2ccccc2)n1Cc1cccc(O)c1 [Compound 17, (E)-N-((Z)-4-(3-Hydroxybenzyl)-3-methyl-1,2,4-thiadiazol-5(4H)-ylidene)-N′-phenylbenzimidamide]			markedly increased cell apoptosis
